Data as given in patent US12391643B2, “Substituted amino-thiol and amino-disulfide compounds, and uses thereof” (The Regents of the University of California, priority 2019, dated 2025).
Entries after “also recorded” stand apart in the source; their conditions may differ. Structures can show the parent of a compound that is named as a salt.

Experiments:
Pooled human hepatocytes = assay: Hepatocyte elimination (in vitro metabolic stability, percent parent remaining by LC/MS/MS); assay type: in vitro ADME; settings: for Rate of hepatocyte elimination / stability, comparison in words: compared with other forms
From the text: In vitro experiments with isotopically enriched cystamine and cysteamine in hepatocytes.
The assessment of in vitro metabolic stability provides a means to measure the susceptibility of a test compound to biotransformation by the liver. While liver microsomes primarily assess cytochrome P450 system-mediated metabolism (phase I metabolism), hepatocytes represent a complete, undisrupted metabolic system, including cofactors, and thus assess both phase I and phase II metabolism. In all cases, the metabolic stability of test compounds was determined by monitoring, via LC/MS/MS, the percent parent compound remaining versus time of incubation in human hepatocytes.
Pooled human hepatocytes (catalog number HMCS10, ThermoFischer Scientific) were thawed according to the manufacturers instructions. Thawed hepatocytes were washed by centrifugation and replated in Williams' Medium E supplemented with Heptocyte Plating Supplement Pack, Serum-containing.
Cells were diluted to 1,000,000 per ml in maintenance media (Williams' E Media supplemented with Hepatocyte Maintenance Supplement Pack, Serum-free). 500 μl of cell suspension was added to each well of a microtiter plate containing 500 μl of the deuterated test agent and placed on an orbital shaker at 120 rpm at 37 C. At the appropriate time point 50 μl aliquots were removed from the well and added to 50 μl of ice cold ethyl acetate and vortexed for 5 min and froze until chromatography analysis.

cystinotic fibroblasts [1] = assay: Cystine re-accumulation after washout in cystinotic fibroblasts; assay type: cell-based, human; settings: for Cystine reaccumulation after washout, D4n vs D8: 50 μM for 3 hours, then media 1 h, 3 h, 16 h
Method: (§1) In vitro experiments with isotopically enriched cystamine in cystinotic fibroblasts. Fibroblasts from a de-identified cystinotic patient were split 3× from 2 plates into 36 plates. Three different drugs were used for the experiments: cystamine (non-labeled), d2-cystamine, and d4-cystamine. There were two time series for each drug. The first was with constant drug incubation and included: 0, 10 min, 30 min, 1 h, 3 h, and 5 h. The other series included a washout after 3 h drug incubation, using fresh media following a PBS wash, and included the timepoints: 0, 30 min, 1 h, 3 h, 5 h, and 17 h. A direct quench and extraction technique were used for harvesting all cells to minimize further oxidation and metabolism. This included 2× washes with PBS that included 5 mM N-ethylmaleimide for trapping free thiol groups, and then scraping the plates with an acidified organic solvent extraction solution containing both d4-cystine and d4-cysteamine (plus d-8 cystamine) as internal standards. All samples were run on an API 4500 triple quadrupole LC-MS/MS, with selective reaction monitoring (SRM/MRM) for the following compounds of interest: cystine, NEM-cysteamine, NEM-cysteine, cystamine, and 2-(methylthio)ethylamine. All data fit well to single exponential curves (either decay or association), except where mentioned.
Cystine measurement after washout: Fibroblast cultures were exposed to 100 uM cystamine/d2-cystamine/d4-cystamine for 3 h. Following incubation, cells were washed with PBS, and then incubated with regular media (containing FBS) for the following timepoints: 0 min, 30 min, 1 h, 3 h, 5 h, and 17 h. Cells were harvested identically as described previously.
(§2) Fibroblasts from a de-identified cystinotic patient were split 3× from 2 plates into 18 plates. Two different drugs were used for the experiments: D4n-cystamine, and D8-cystamine. There were two time series for each drug. The first was with constant drug incubation and included: 0, 15 min, 30 min, 1 hr, and 3 hr. The other series included a washout after 3 hours of drug incubation, using fresh media following a PBS wash, and included the time-points: 0, 1 hr, 3 hr, and 16 hr. A direct quench and extraction technique was used for harvesting all cells to minimize further oxidation and metabolism. […] All samples were run on an API 4500 triple quadruple LC-MS/MS, with selective reaction monitoring (SRM/MRM) for the following compounds of interest: cystine, NEM-cysteamine, NEM-cysteine, and cystamine. All data fit well to single exponential curves (either decay or association), except where mentioned.
Fibroblast cultures were exposed to 50 μM cystamine (D8 or D4n) for 3 hours. Following incubation, cells were washed with PBS and then incubated with regular mediate containing FBS for 1 h, 3 h, and 16 h. Cells were harvested as above. […] Cystine reaccumulation between D4n-cystamine and D8-cystamine are very similar, indicating similar levels of drug remaining during the washout timepoints (FIG. 15).

[2] = test system: C57BL/6 male mice on CDAHFD diet; assay: In vivo NASH model, prevention phase (drug in drinking water, 8 weeks); settings: about 200 mg/kg/day in drinking water, n=8 per group
Method: (§3) In vivo NASH Models. NASH models from normal C57BL/6 male mice on CDAHFD diet (choline deficient, L-amino acid defined, high fat diet with restricted amount of methionine) were used. Two deuterated cystamine molecules were tested:
(§4) Two phase study was performed: (1) A prevention and (2) a treatment phase. 48 Mice were separated into nine groups of mice as described below. Histology at end of each study was performed looking for specific features of NASH (steatohepatitis, ballooning, fibrosis). The primary endpoint was plasma ALT measurement. Gene expression studies for fibrosis, inflammation were also performed.
Drug (D2 or D4) was administered in drinking water at a concentration to deliver animals about 200 mg/kg/day of drug. Daily weight. Volume of fluid drunk/day was also measured.
Prevention Phase. Group 1: Control mice on CDAHFD for 8 weeks. Blood drawn at 0, 4, and 8 weeks. Group 2: Mice on CDAHFD plus D2 at 200 mg/kg/day for 8 weeks. Blood drawn at 0, 4, and 8 weeks. Group 3: Mice on CDAHFD plus D4 at 200 mg/kg/day for 8 weeks. Blood drawn at 0, 4, and 8 weeks. Group 4: Control mice (n=4) continue on CDAHFD for 2 weeks. Blood at baseline and at 2 weeks. Liver histology at 2 weeks. Group 5: Mice (n=4) on CDAHFD for 2 weeks plus D2 at 200 mg/kg/day administered via daily gavage. Blood at 0 and 2 weeks and histology at 2 weeks. […]

[3] = test system: C57BL/6 male mice on CDAHFD diet; assay: In vivo NASH model, treatment phase (8 weeks CDAHFD, then 2 weeks daily gavage); settings: for Fatty deposits / fat globules in liver, H&E staining: 200 mg/kg/day
Method: Liver Inflammatory Cells. CD11b stains macrophages and microglia. CD11b staining of liver tissue was taken after 10 weeks of CDAHFD in three groups of mice. […] At 8 weeks, treatment group 2 (“C2”) mice started gavage feeding with D2-Cystamine at 200 mg/kg/day once daily gavage, and treatment group 3 (“C3”) mice received D4-Cystamine at 200 mg/kg/day by once daily gavage.
as §3, §4
Prevention Phase. Group 1: Control mice on CDAHFD for 8 weeks. Blood drawn at 0, 4, and 8 weeks. Group 2: Mice on CDAHFD plus D2 at 200 mg/kg/day for 8 weeks. Blood drawn at 0, 4, and 8 weeks. Group 3: Mice on CDAHFD plus D4 at 200 mg/kg/day for 8 weeks. Blood drawn at 0, 4, and 8 weeks. Group 4: Control mice (n=4) continue on CDAHFD for 2 weeks. Blood at baseline and at 2 weeks. Liver histology at 2 weeks. Group 5: Mice (n=4) on CDAHFD for 2 weeks plus D2 at 200 mg/kg/day administered via daily gavage. Blood at 0 and 2 weeks and histology at 2 weeks. Group 6: Mice (n=4) on CDAHFD for 2 weeks plus D4 at 200 mg/kg/day administered via daily gavage. Blood at 0 and 2 weeks and histology at 2 weeks.
Treatment Study Results. Groups 4, 5 and 6 mice received 8 weeks of CDAHDF diet before beginning treatment with deuterated compounds of the disclosure. During the treatment phase the mice continued to receive CDAHDF diet. Four mice were set in each group: control (C1) not receiving any drug; treatment (C2) receiving 200 mg/kg of cystamine D2 by once daily gavage; and treatment (C3) receiving 200 mg/kg cystamine D4 by once daily gavage.

cystinotic fibroblasts [4] = assay: Intracellular NEM-cysteamine, NEM-cysteine, cystamine and mixed disulfide levels in cystinotic fibroblasts; assay type: cell-based, human; settings: for NEM-cysteine level after 3 h incubation and washout: washout period; for NEM-cysteamine level during constant incubation: 100 uM drug, early timepoints, normalized against d4-cystine; for Intracellular cystamine level during constant drug incubation: FIG. 10
Method: as §1
NEM-cysteamine and NEM-cysteine during constant incubation. Fibroblast cultures were exposed to drug (either cystamine, d2-cystamine, or d4-cystamine) and harvested as described on page 2 for the cystine depletion curve. NEM-cysteamine (or NEM-d1-cysteamine or NEM-d2-cysteamine) was measured for each respective plate and normalized against the signal for d4-cystine.
NEM-cysteamine during washout. Fibroblast cultures were exposed to drug (either cystamine, d2-cystamine, or d4-cystamine) for 3 h were then exposed to media for various timepoints and harvested as previously described.
NEM-cysteine during washout. Fibroblast cultures were exposed to drug (either cystamine, d2-cystamine, or d4-cystamine) for 3 h were then exposed to media for various timepoints and harvested as previously described.
Cystamine during constant drug incubation. Fibroblast cultures were exposed to drug (either cystamine, d2-cystamine, or d4-cystamine) for various timepoints following harvesting as described earlier. Cystamine could be measured in the non-labeled cystamine incubation as well as the d4-cystamine incubation. d2-cystamine could not be accurately measured due to a strong background interference signal corresponding to that mass. No cystamine could be measured in the washout experiments.

cystinotic fibroblasts [5] = assay: Cystine depletion during constant drug exposure in cystinotic fibroblasts; assay type: cell-based, human; settings: for Rate of intracellular cystine depletion, comparison in words: 100 uM constant exposure, 0-5 h, vs cystamine; for Reduction of intracellular cystine levels: cystamine 50, 100, 200 μM, cysteamine 200 μM (FIG. 1)
Method: as §1
Following incubation, cells were washed 2× in PBS containing N-ethylmaleimide.
as §2

[6] = test system: intracellular cystine (circulating white blood cells); settings: taken regularly; measured in circulating white blood cells; cited from earlier work
cystinotic fibroblasts [7] = assay: Intracellular NEM-cysteamine, NEM-cysteine, cystamine and mixed disulfide levels in cystinotic fibroblasts; assay type: cell-based, human; settings: cystamine 50, 100, 200 μM compared with cysteamine 200 μM (FIG. 2)
steatosis = settings: 400-1000 IU/day for 4-10 months, cited from earlier work

Compound: NCCS.O=C(O)C(O)C(O)C(=O)O (stereo not shown) [Cysteamine Bitartrate, reference compound]
- Hepatocyte elimination, % remaining (Pooled human hepatocytes; TIME 0 min): 100%
- Hepatocyte elimination, % remaining (Pooled human hepatocytes; TIME 15 min): 15.4%
- Hepatocyte elimination, % remaining (Pooled human hepatocytes; TIME 30 min): 2.7%
- Hepatocyte elimination, % remaining (Pooled human hepatocytes; TIME 60 min): 1.2%

Compound: [2H]C([2H])(N)CSSCC([2H])([2H])N [D4n-cystamine, 2,2′-disulfanediylbis(ethan-1,1-d2-1-aminium) chloride]
- Cystine reaccumulation after washout, D4n vs D8 (cystinotic fibroblasts [1]): very similar

Compound: [2H]C(CN)SSC([2H])CN (stereo not drawn) [D2-Cystamine, 2,2′-disulfanediylbis(ethan-2-d-1-amine)dihydrochloride]
- ALT levels at 8 weeks versus control group [2]: statistically significant difference
- ALT versus untreated control group ([3]; 200 mg/kg once daily gavage, 2 weeks): significantly lower
- Hepatic fibrosis, Sirius Red staining of liver sections ([3]; 200 mg/kg once daily gavage, 2 weeks, listed as D2): significant reduction in the amount of positive liver staining
- Hepatic fibrosis, Sirius Red staining of liver sections ([3]; 200 mg/kg once daily gavage, 2 weeks, listed as cystamine D2): very significant reduction in hepatic fibrosis
- Number of CD11b positive cells in liver tissue versus control group ([3]; 200 mg/kg/day once daily gavage, 2 weeks): statistically significant reduction
- Fatty deposits / fat globules in liver, H&E staining ([3]; 2 weeks): reduction in fatty globules
- Fatty deposits / fat globules in liver, H&E staining ([3]; 2 weeks, listed as D2): reduced fatty deposits compared to control
- TIMP expression, qPCR, versus control ([3]; liver, 2 weeks of treatment): significant reduction
- Rate of hepatocyte elimination / stability, comparison in words (Pooled human hepatocytes): slower than non-deuterated cystamine
- NEM-cysteine level after 3 h incubation and washout (cystinotic fibroblasts [4]): rise and increase
- NEM-cysteine level after 3 h incubation and washout (cystinotic fibroblasts [4]; listed as D2): higher cysteine levels
- Rate of intracellular cystine depletion, comparison in words (cystinotic fibroblasts [5]; listed as D2-cystamine): slightly slower kinetics
- Rate of intracellular cystine depletion, comparison in words (cystinotic fibroblasts [5]; listed as d2-Cystamine): slightly slower kinetics
- Rate of intracellular cystine depletion, comparison in words (cystinotic fibroblasts [5]; listed as d2-cystamine): slower
- Cystine re-accumulation after washout, comparison in words (cystinotic fibroblasts [1]; 100 uM for 3 h, then drug-free media up to 17 h, vs cystamine): slightly faster

Compound: NCCS [Cysteamine, reference compound]
- Depletion of intracellular cystine [6]: up to 90%
- Reduction of intracellular cystine levels (cystinotic fibroblasts [5]): effective and more rapid in its response time

Compound: NCCSSCCN [Cystamine]
- Hepatocyte elimination, % remaining (Pooled human hepatocytes; TIME 0 min): 100%
- Hepatocyte elimination, % remaining (Pooled human hepatocytes; TIME 15 min): 18.5%
- Hepatocyte elimination, % remaining (Pooled human hepatocytes; TIME 30 min): 6.5%
- NEM-cysteamine level during constant incubation (cystinotic fibroblasts [4]): faster/higher; also recorded: Higher levels of cysteamine
- NEM-cysteamine level during constant incubation (cystinotic fibroblasts [4]; listed as non-labeled cystamine): highest
- Intracellular cystamine level during constant drug incubation (cystinotic fibroblasts [4]): deplete rapidly
- Intracellular cystamine level during constant drug incubation (cystinotic fibroblasts [4]; listed as cystamine): depletes rapidly
- NEM-cysteine level after 3 h incubation and washout (cystinotic fibroblasts [4]): rise and increase
- Reduction of intracellular cystine levels (cystinotic fibroblasts [5]): effective in reducing intracellular cystine levels in a dose-response fashion
- Conversion of intracellular cystine to mixed disulfide (MD) of cysteine-cysteamine (cystinotic fibroblasts [7]): delayed
- Cystine level 17 h after washout versus plates not exposed to cystamine (cystinotic fibroblasts [1]; 3 h incubation with 100 μM cystamine, then cystamine-free media): identical to the 17 h cystine measurement

Compound: [2H]C(CN)SSC([2H])CN (stereo not shown) [drawing 24]
- Hepatocyte elimination, % remaining (Pooled human hepatocytes; TIME 0 min): 100%
- Hepatocyte elimination, % remaining (Pooled human hepatocytes; TIME 15 min): 22.6%
- Hepatocyte elimination, % remaining (Pooled human hepatocytes; TIME 30 min): 24.3%
- Hepatocyte elimination, % remaining (Pooled human hepatocytes; TIME 60 min): 0%

Compound: [2H]C([2H])(N)C([2H])([2H])SSC([2H])([2H])C([2H])([2H])N [D8-cystamine]
- Cystine reaccumulation after washout, D4n vs D8 (cystinotic fibroblasts [1]): very similar

Compound: [2H]C([2H])(CN)SSC([2H])([2H])CN [drawing 25]
- Hepatocyte elimination, % remaining (Pooled human hepatocytes; TIME 0 min): 100%
- Hepatocyte elimination, % remaining (Pooled human hepatocytes; TIME 15 min): 131.4%
- Hepatocyte elimination, % remaining (Pooled human hepatocytes; TIME 30 min): 35.9%
- Hepatocyte elimination, % remaining (Pooled human hepatocytes; TIME 60 min): 14.5%

Compound: 2-aminoethane-1-d-1-thiol hydrochloride [D-cysteamine]
- Rate of hepatocyte elimination / stability, comparison in words (Pooled human hepatocytes): slower rate than cysteamine bitartrate

Compound: Cl.[2H]C([2H])(S)CN [D2-cysteamine, 2-mercaptoethan-2,2-d2-1-aminium chloride]
- Rate of hepatocyte elimination / stability, comparison in words (Pooled human hepatocytes): slower rate than cysteamine bitartrate

Compound: vitamin E
- Mean AST level after treatment (steatosis; decreased from 104±61 IU/L): 33±11 IU/L
- Mean ALT level after treatment (steatosis; decreased from 175±106 IU/L): 40±26 IU/L
